From PubChem BioAssay (NCI)
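Briefly, cells in 96-well plates were exposed to five compound concentrations for 48 h, and endpoints were estimated by linear interpolation. Here, GI50 denotes the concentration required for 50% inhibition of growth. TGI is the concentration that stops growth completely.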

What was measured:
Assay in all cases: NCI-60 cell line screen, 48 h
COLO 205 colon = test system: COLO 205 colon
MALME-3M melanoma = test system: MALME-3M melanoma
DMS 114 small cell lung = test system: DMS 114 small cell lung
IGROV1 ovarian = test system: IGROV1 ovarian
CAKI-1 renal = test system: CAKI-1 renal
OVCAR-8 ovarian = test system: OVCAR-8 ovarian
786-0 renal = test system: 786-0 renal
UACC-257 melanoma = test system: UACC-257 melanoma
K-562 leukemia = test system: K-562 leukemia
TK-10 renal = test system: TK-10 renal
NCI-H460 lung = test system: NCI-H460 lung
A549 NSCLC = test system: A549 NSCLC
OVCAR-3 ovarian = test system: OVCAR-3 ovarian
UO-31 renal = test system: UO-31 renal
M19-MEL melanoma = test system: M19-MEL melanoma
NCI-H522 lung = test system: NCI-H522 lung
UACC-62 melanoma = test system: UACC-62 melanoma
SK-MEL-2 melanoma = test system: SK-MEL-2 melanoma
HOP-62 NSCLC = test system: HOP-62 NSCLC
OVCAR-4 ovarian = test system: OVCAR-4 ovarian
MOLT-4 leukemia = test system: MOLT-4 leukemia
DMS 273 small cell lung = test system: DMS 273 small cell lung
SNB-19 CNS = test system: SNB-19 CNS
DLD-1 colon = test system: DLD-1 colon
SR leukemia = test system: SR leukemia
NCI-H23 lung = test system: NCI-H23 lung
SF-539 CNS = test system: SF-539 CNS
HCT-116 colon = test system: HCT-116 colon
EKVX NSCLC = test system: EKVX NSCLC
SNB-75 CNS = test system: SNB-75 CNS
SN12C renal = test system: SN12C renal
HCC-2998 colon = test system: HCC-2998 colon
KM20L2 colon = test system: KM20L2 colon
KM12 colon = test system: KM12 colon
U251 CNS = test system: U251 CNS
CCRF-CEM leukemia = test system: CCRF-CEM leukemia
SF-295 CNS = test system: SF-295 CNS
RXF 393 renal = test system: RXF 393 renal
HT29 colon = test system: HT29 colon
RPMI-8226 leukemia = test system: RPMI-8226 leukemia
SW-620 colon = test system: SW-620 colon
LOX IMVI melanoma = test system: LOX IMVI melanoma
LXFL 529 NSCLC = test system: LXFL 529 NSCLC
SK-MEL-5 melanoma = test system: SK-MEL-5 melanoma
M14 melanoma = test system: M14 melanoma
HCT-15 colon = test system: HCT-15 colon
ACHN renal = test system: ACHN renal
SF-268 CNS = test system: SF-268 CNS
HL-60(TB) leukemia = test system: HL-60(TB) leukemia
NCI-H226 lung = test system: NCI-H226 lung
SK-MEL-28 melanoma = test system: SK-MEL-28 melanoma
A498 renal = test system: A498 renal
SK-OV-3 ovarian = test system: SK-OV-3 ovarian

**Q.** What does the source list for `CNS(=O)(=O)NNS(=O)(=O)c1cccc([N+](=O)[O-])c1`?
**A.** TGI (COLO 205 colon): > 100 µM; TGI (MALME-3M melanoma): > 100 µM; TGI (DMS 114 small cell lung): > 100 µM; TGI (IGROV1 ovarian): > 100 µM; TGI (CAKI-1 renal): > 100 µM; TGI (OVCAR-8 ovarian): > 100 µM; TGI (786-0 renal): > 100 µM; TGI (UACC-257 melanoma): > 100 µM; TGI (K-562 leukemia): > 100 µM; TGI (TK-10 renal): > 100 µM; TGI (NCI-H460 lung): > 100 µM; TGI (A549 NSCLC): > 100 µM; TGI (OVCAR-3 ovarian): > 100 µM; TGI (UO-31 renal): > 100 µM; TGI (M19-MEL melanoma): > 100 µM; TGI (NCI-H522 lung): > 100 µM; TGI (UACC-62 melanoma): > 100 µM; TGI (SK-MEL-2 melanoma): > 100 µM; TGI (HOP-62 NSCLC): > 100 µM; TGI (OVCAR-4 ovarian): > 100 µM; TGI (MOLT-4 leukemia): > 100 µM; TGI (DMS 273 small cell lung): > 100 µM; TGI (SNB-19 CNS): > 100 µM; TGI (DLD-1 colon): > 100 µM; TGI (SR leukemia): > 100 µM; TGI (NCI-H23 lung): > 100 µM; TGI (SF-539 CNS): > 100 µM; TGI (HCT-116 colon): > 100 µM; TGI (EKVX NSCLC): > 100 µM; TGI (SNB-75 CNS): > 100 µM; TGI (SN12C renal): > 100 µM; TGI (HCC-2998 colon): > 100 µM; TGI (KM20L2 colon): > 100 µM; TGI (KM12 colon): > 100 µM; TGI (U251 CNS): > 100 µM; TGI (CCRF-CEM leukemia): > 100 µM; TGI (SF-295 CNS): > 100 µM; TGI (RXF 393 renal): > 100 µM; TGI (HT29 colon): > 100 µM; TGI (RPMI-8226 leukemia): > 100 µM; TGI (SW-620 colon): > 100 µM; TGI (LOX IMVI melanoma): > 100 µM; TGI (LXFL 529 NSCLC): > 100 µM; TGI (SK-MEL-5 melanoma): > 100 µM; TGI (M14 melanoma): > 100 µM; TGI (HCT-15 colon): > 100 µM; TGI (ACHN renal): > 100 µM

**Q.** What does the source list for `O=C(/C=C/c1ccc(Cl)cc1)c1ccc(Cl)c(Cl)c1`?
**A.** TGI (MALME-3M melanoma): 62.4 µM; TGI (DMS 114 small cell lung): > 100 µM; TGI (IGROV1 ovarian): 79.9 µM; TGI (CAKI-1 renal): 53.1 µM; TGI (OVCAR-8 ovarian): 47.9 µM; TGI (786-0 renal): > 100 µM; TGI (UACC-257 melanoma): 98.8 µM; TGI (K-562 leukemia): > 100 µM; TGI (NCI-H460 lung): > 100 µM; TGI (A549 NSCLC): > 100 µM; TGI (OVCAR-3 ovarian): 48.3 µM; TGI (UO-31 renal): 80.9 µM; TGI (M19-MEL melanoma): > 100 µM; TGI (NCI-H522 lung): 42.9 µM; TGI (UACC-62 melanoma): 70 µM; TGI (SK-MEL-2 melanoma): 47.8 µM; TGI (HOP-62 NSCLC): 53.9 µM; TGI (OVCAR-4 ovarian): > 100 µM; TGI (MOLT-4 leukemia): 69.6 µM; TGI (DMS 273 small cell lung): > 100 µM; TGI (SNB-19 CNS): 75.5 µM; TGI (DLD-1 colon): > 100 µM; TGI (SF-268 CNS): > 100 µM; GI50 (HL-60(TB) leukemia): 15.9 µM; TGI (HL-60(TB) leukemia): 45.8 µM; TGI (NCI-H226 lung): 34.9 µM; TGI (NCI-H23 lung): 30.2 µM; TGI (SF-539 CNS): 56.9 µM; TGI (HCT-116 colon): > 100 µM; TGI (EKVX NSCLC): 87.2 µM; TGI (SNB-75 CNS): 61.5 µM; GI50 (SN12C renal): 48 µM; TGI (SN12C renal): > 100 µM; TGI (HCC-2998 colon): > 100 µM; TGI (KM20L2 colon): > 100 µM; GI50 (KM12 colon): 12.2 µM; TGI (KM12 colon): > 100 µM; TGI (U251 CNS): 44.5 µM; TGI (CCRF-CEM leukemia): 50.5 µM; TGI (SF-295 CNS): > 100 µM; TGI (RXF 393 renal): 72.2 µM; TGI (HT29 colon): > 100 µM; TGI (RPMI-8226 leukemia): 8.88 µM; GI50 (SW-620 colon): 19.6 µM; TGI (SW-620 colon): > 100 µM; TGI (LOX IMVI melanoma): > 100 µM; TGI (SK-MEL-28 melanoma): 66.7 µM; TGI (LXFL 529 NSCLC): 92.5 µM; TGI (A498 renal): > 100 µM; TGI (SK-MEL-5 melanoma): 68.7 µM; TGI (SK-OV-3 ovarian): 85.9 µM; TGI (M14 melanoma): > 100 µM; TGI (HCT-15 colon): > 100 µM; TGI (ACHN renal): > 100 µM
